The results in this text go back to ChEMBL document CHEMBL1157847, “Dichloro-4-quinolinol-3-carboxylic acid: synthesis and antioxidant abilities to scavenge radicals and to protect methyl linoleate and DNA” (Eur J Med Chem, 2010).

Common to all, as to assay type: functional
Test [1] is described as follows: Antioxidant activity assessed as residual ABTS cationic radical scavenging activity at 1.5 mM after 30 mins relative to control.
A short description of test [2]: Antioxidant activity assessed as residual galvinoxyl radical scavenging activity at 1.5 mM after 30 mins relative to control.
The subject of test [3] is Radical scavenging activity. In words: Antioxidant activity assessed as residual DPPH radical scavenging activity at 1.5 mM after 30 mins relative to control.
Test [4] can be described thus: Antioxidant activity against AAPH-induced linoleic acid oxidation assessed as exhausted methyl linoleate at 2 mM after 4 hrs relative to control.
The nature of test [5]: Antioxidant activity against beta-carotene bleaching assessed as decrease of absorbance at 0.3 mM after 100 mins relative to control. The arrangement: scale not given: the % may be the effect or the level left.
Test [6] is described as follows: Antioxidant activity against hydroxyl radical-induced DNA damage assessed as TBARS production at 400 uM after 30 mins relative to control.
Test [7] is described as follows: Antioxidant activity against AAPH-induced DNA damage assessed as TBARS production at 200 uM after 4 hrs relative to control.
Test [8] in a line: Antioxidant activity against Cu(2+)/GSH-induced DNA damage assessed as TBARS production at 200 uM after 4 hrs relative to control.

With `O=C(O)c1cnc2c(Cl)c(Cl)ccc2c1O`, the Activity in test [1] came out at 97.5%; in test [2] it was 102%; in test [3] it was 93.4%; in test [4] it was 41.9%; in test [5], 108%; in test [6], 88.7%. Also, the Activity in test [7] stood at 97.9%; in test [8], 111%.
In the case of `O=C(O)c1cnc2c(Cl)ccc(Cl)c2c1O`, the Activity in test [1] worked out at 99.9%; in test [2] it was 104%; in test [3], 94.1%; in test [4], 62.7%; in test [5] it was 77.3%; in test [6], 84.6%. Besides, the Activity stood at 95.4% in test [7] and 103% in test [8].
With `O=C(O)c1cnc2cc(Cl)ccc2c1O`, the Activity was 102% in test [1]; 104% in test [2]; 94.7% in test [3]; 107% in test [4]; 91.1% in test [5]; 102% in test [6]. Also, the Activity in test [7] was 95%; in test [8], 88.9%.
Take `O=C(O)c1cnc2ccccc2c1O`: the Activity in test [1] stood at 101%; in test [2], 102%; in test [3], 94.6%; in test [4], 113%; in test [5], 77.3%; in test [6], 90.4%. The Activity was found to be 103% in test [7] and 96.6% in test [8].
On to `O=C(O)c1cnc2c(Cl)cc(Cl)cc2c1O`, for which the Activity in test [1] was 104%; in test [2] it was 104%; in test [3], 93.8%; in test [4], 7.3%; in test [5], 129%; in test [6], 83.3%. Besides, the figures for the Activity in test [7] and in test [8] were 99.4% and 95.4%, respectively.
With `O=C(O)c1cnc2cc(Cl)cc(Cl)c2c1O`, the Activity in test [1] stood at 90%; in test [2], 93.5%; in test [3], 91.2%; in test [4], 111%; in test [5], 77.3%; in test [6] it was 92.7%. The Activity in test [7] is 98.6%; in test [8], 98.3%.
